Structures are written as SMILES.

Consider 31 molecules from patent US8865698B2, “Method of treatment using substituted pyrazolo[1,5-a]pyrimidine compounds” (Array BioPharma Inc., priority 2008, dated 2014).

The target in the experiment is histidine-tagged recombinant human TrkA, cytoplasmic domain (Homo sapiens (Human), UniProt P04629). The experiment can be described thus: TrkA ELISA Assay. It counts as biochemical. To be noted: 2.5 nM TrkA, 500 μM ATP, 25 minutes; read-out: TrkA Elisa Enzyme IC50. The gist of the method:
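2.5 nM enzyme with 500 μM ATP on poly(Glu,Ala,Tyr 6:3:1)-coated plates, 25 min at ambient temperature in 25 mM MOPS pH 7.5, 5 mM MgCl2, 0.005% Triton X-100. Phosphotyrosine detected by HRP-PY20 antibody, TMB, A450; IC50 from 4- or 5-parameter logistic fit.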
A general note: An ELISA detects its analyte on a solid surface through an enzyme-linked reagent.

histidine-tagged recombinant human TrkA, cytoplasmic domain, sequence (P04629 440-796): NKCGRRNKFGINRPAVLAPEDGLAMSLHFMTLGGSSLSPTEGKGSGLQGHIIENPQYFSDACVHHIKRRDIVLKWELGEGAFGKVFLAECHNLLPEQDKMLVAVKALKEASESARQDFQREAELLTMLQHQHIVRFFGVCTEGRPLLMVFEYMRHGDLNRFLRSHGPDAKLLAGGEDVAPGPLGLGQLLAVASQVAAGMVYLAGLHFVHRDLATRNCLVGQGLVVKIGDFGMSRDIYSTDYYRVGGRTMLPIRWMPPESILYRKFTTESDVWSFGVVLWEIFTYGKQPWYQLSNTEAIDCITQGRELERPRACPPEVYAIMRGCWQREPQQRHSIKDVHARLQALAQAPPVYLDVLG

By IC50 is commonly meant the concentration at which inhibition is half-maximal. Turning to `O=C(Nc1cnn2ccc(N3CCC[C@@H]3c3cc(F)ccc3F)nc12)c1ncccn1` [Example 67, (R)—N-(5-(2-(2,5-difluorophenyl)pyrrolidin-1-yl)pyrazolo[1,5-a]pyrimidin-3-yl)pyrimidine-2-carboxamide], the IC50 came out at 3 nM.

Consider `O=C(Nc1cnn2ccc(N3CCC[C@@H]3c3cccc(F)c3)nc12)c1ccccn1` [Example 68, (R)—N-(5-(2-(3-fluorophenyl)pyrrolidin-1-yl)pyrazolo[1,5-a]pyrimidin-3-yl)picolinamide], for which the IC50 turned out to be 4 nM.

Regarding `Cc1cccnc1C(=O)Nc1cnn2ccc(N3CCC[C@@H]3c3cccc(F)c3)nc12` [Example 69, (R)—N-(5-(2-(3-fluorophenyl)pyrrolidin-1-yl)pyrazolo[1,5-a]pyrimidin-3-yl)-3-methylpicolinamide], the IC50 is 6.2 nM.

Regarding `Cn1ccc(C(=O)Nc2cnn3ccc(N4CCC[C@@H]4c4cccc(F)c4)nc23)cc1=O` [Example 70, (R)—N-(5-(2-(3-fluorophenyl)pyrrolidin-1-yl)pyrazolo[1,5-a]pyrimidin-3-yl)-1-methyl-2-oxo-1,2-dihydropyridine-4-carboxamide], the IC50 was 55.6 nM.

In the case of `O=C(Nc1cnn2ccc(N3CCC[C@@H]3c3cc(F)ccc3F)nc12)c1cccc(Cl)n1` [Example 71, (R)-6-chloro-N-(5-(2-(2,5-difluorophenyl)pyrrolidin-1-yl)pyrazolo[1,5-a]pyrimidin-3-yl)picolinamide], the IC50 was 3.5 nM.

As to `CCS(=O)(=O)Nc1ccc(C(=O)Nc2cnn3ccc(N4CCC[C@@H]4c4cccc(F)c4)nc23)cc1` [Example 72, (R)-4-(ethylsulfonamido)-N-(5-(2-(3-fluorophenyl)pyrrolidin-1-yl)pyrazolo[1,5-a]pyrimidin-3-yl)benzamide], the IC50 was 45.5 nM.

With `Cn1ccc(C(=O)Nc2cnn3ccc(N4CCC[C@@H]4c4cccc(F)c4)nc23)n1` [Example 73, (R)—N-(5-(2-(3-fluorophenyl)pyrrolidin-1-yl)pyrazolo[1,5-a]pyrimidin-3-yl)-1-methyl-1H-pyrazole-3-carboxamide], the IC50 was determined as 8.5 nM.

For the molecule `O=C(Nc1cnn2ccc(N3CCC[C@@H]3c3cccc(F)c3)nc12)c1cc[nH]n1` [Example 74, (R)—N-(5-(2-(3-fluorophenyl)pyrrolidin-1-yl)pyrazolo[1,5-a]pyrimidin-3-yl)-1H-pyrazole-3-carboxamide], the IC50 was 15.3 nM.

Consider `COc1cccc(C(=O)Nc2cnn3ccc(N4CCC[C@@H]4c4cccc(F)c4)nc23)n1` [Example 75, (R)—N-(5-(2-(3-fluorophenyl)pyrrolidin-1-yl)pyrazolo[1,5-a]pyrimidin-3-yl)-6-methoxypicolinamide], for which the half-maximal inhibitory concentration (IC50) came to 7.4 nM.

As to `O=C(Nc1cnn2ccc(N3CCC[C@@H]3c3cccc(F)c3)nc12)c1cccnc1` [Example 76, (R)—N-(5-(2-(3-fluorophenyl)pyrrolidin-1-yl)pyrazolo[1,5-a]pyrimidin-3-yl)nicotinamide], the IC50 came out at 53.3 nM.

On to `O=C(Nc1cnn2ccc(N3CCC[C@@H]3c3cccc(F)c3)nc12)c1ccncc1` [Example 77, (R)—N-(5-(2-(3-fluorophenyl)pyrrolidin-1-yl)pyrazolo[1,5-a]pyrimidin-3-yl)isonicotinamide], for which the IC50 was 71.8 nM.

Turning to `Cc1ccc(C(=O)Nc2cnn3ccc(N4CCC[C@@H]4c4cccc(F)c4)nc23)cn1` [Example 78, (R)—N-(5-(2-(3-fluorophenyl)pyrrolidin-1-yl)pyrazolo[1,5-a]pyrimidin-3-yl)-6-methylnicotinamide], the IC50 was determined as 47 nM.

`COc1ncccc1C(=O)Nc1cnn2ccc(N3CCC[C@@H]3c3cccc(F)c3)nc12` [Example 79, (R)—N-(5-(2-(3-fluorophenyl)pyrrolidin-1-yl)pyrazolo[1,5-a]pyrimidin-3-yl)-2-methoxynicotinamide]: the 50% inhibitory concentration (IC50) worked out at 5.7 nM.

Consider `Cc1cnccc1C(=O)Nc1cnn2ccc(N3CCC[C@@H]3c3cccc(F)c3)nc12` [Example 80, (R)—N-(5-(2-(3-fluorophenyl)pyrrolidin-1-yl)pyrazolo[1,5-a]pyrimidin-3-yl)-3-methylisonicotinamide], for which the IC50 came out at 320 nM.

With `O=C(Nc1cnn2ccc(N3CCC[C@@H]3c3cc(F)ccc3Cl)nc12)N1CC[C@H](O)C1` [Example 81, (S)—N-(5-((R)-2-(2-chloro-5-fluorophenyl)pyrrolidin-1-yl)pyrazolo[1,5-a]pyrimidin-3-yl)-3-hydroxypyrrolidine-1-carboxamide], the IC50 came out at 8 nM.

Take `Cc1cnc(C(=O)Nc2cnn3ccc(N4CCC[C@@H]4c4cccc(F)c4)nc23)cn1` [Example 82, (R)—N-(5-(2-(3-fluorophenyl)pyrrolidin-1-yl)pyrazolo[1,5-a]pyrimidin-3-yl)-5-methylpyrazine-2-carboxamide]: the IC50 was determined as 6.6 nM.

As for `Cn1ccnc1C(=O)Nc1cnn2ccc(N3CCC[C@@H]3c3cccc(F)c3)nc12` [Example 83, (R)—N-(5-(2-(3-fluorophenyl)pyrrolidin-1-yl)pyrazolo[1,5-a]pyrimidin-3-yl)-1-methyl-1H-imidazole-2-carboxamide], the IC50 worked out at 35.4 nM.

For the molecule `O=C(Nc1cnn2ccc(N3CCC[C@@H]3c3cc(F)ccc3C(F)(F)F)nc12)N1CC[C@H](O)C1` [Example 84, (S)—N-(5-((R)-2-(5-fluoro-2-(trifluoromethyl)phenyl)pyrrolidin-1-yl)pyrazolo[1,5-a]pyrimidin-3-yl)-3-hydroxypyrrolidine-1-carboxamide], the IC50 is 3.2 nM.

For `O=C(Nc1cnn2ccc(N3CCC[C@@H]3c3cc(F)ccc3C(F)(F)F)nc12)N1CC[C@@H](O)C1` [Example 85, (R)—N-(5-((R)-2-(5-fluoro-2-(trifluoromethyl)phenyl)pyrrolidin-1-yl)pyrazolo[1,5-a]pyrimidin-3-yl)-3-hydroxypyrrolidine-1-carboxamide], the IC50 is 5.7 nM.

Take `O=C(Nc1cnn2ccc(N3CCC[C@@H]3c3cc(F)ccc3C(F)(F)F)nc12)N1CCC[C@@H](O)C1` [Example 86, (R)—N-(5-((R)-2-(5-fluoro-2-(trifluoromethyl)phenyl)pyrrolidin-1-yl)pyrazolo[1,5-a]pyrimidin-3-yl)-3-hydroxypiperidine-1-carboxamide]: the IC50 was found to be 14 nM.

With `O=C(Nc1cnn2ccc(N3CCC[C@@H]3c3cc(F)ccc3C(F)(F)F)nc12)N1CCC[C@H](O)C1` [Example 87, (S)—N-(5-((R)-2-(5-fluoro-2-(trifluoromethyl)phenyl)pyrrolidin-1-yl)pyrazolo[1,5-a]pyrimidin-3-yl)-3-hydroxypiperidine-1-carboxamide], the IC50 came out at 14.6 nM.

In the case of `O=C(Nc1cnn2ccc(N3CCC[C@@H]3c3cncc(F)c3)nc12)N1CC[C@H](O)C1` [Example 88, (S)—N-(5-((R)-2-(5-fluoropyridin-3-yl)pyrrolidin-1-yl)pyrazolo[1,5-a]pyrimidin-3-yl)-3-hydroxypyrrolidine-1-carboxamide], the half-maximal inhibitory concentration (IC50) was 156 nM.

Consider `O=C(Nc1cnn2ccc(N3CCC[C@@H]3c3cncc(F)c3)nc12)N1CC[C@@H](O)C1` [Example 89, (R)—N-(5-((R)-2-(5-fluoropyridin-3-yl)pyrrolidin-1-yl)pyrazolo[1,5-a]pyrimidin-3-yl)-3-hydroxypyrrolidine-1-carboxamide], for which the IC50 was determined as 896 nM.

For the molecule `COc1ccc(F)cc1[C@H]1CCCN1c1ccn2ncc(NC(=O)N3CC[C@H](O)C3)c2n1` [Example 90, (S)—N-(5-((R)-2-(5-fluoro-2-methoxyphenyl)pyrrolidin-1-yl)pyrazolo[1,5-a]pyrimidin-3-yl)-3-hydroxypyrrolidine-1-carboxamide], the IC50 is 11.3 nM.

As for `COc1ccc(F)cc1[C@H]1CCCN1c1ccn2ncc(NC(=O)N3CCC[C@H](O)C3)c2n1` [Example 91, (S)—N-(5-((R)-2-(5-fluoro-2-methoxyphenyl)pyrrolidin-1-yl)pyrazolo[1,5-a]pyrimidin-3-yl)-3-hydroxypiperidine-1-carboxamide], the IC50 was determined as 10.2 nM.

Take `O=C(Nc1cnn2ccc(N3CCC[C@@H]3c3cc(F)ccc3F)nc12)N1C[C@@H]2C[C@H]1CO2` [Example 92, (1S,4S)—N-(5-((R)-2-(2,5-difluorophenyl)pyrrolidin-1-yl)pyrazolo[1,5-a]pyrimidin-3-yl)-2-oxa-5-azabicyclo[2.2.1]heptane-5-carboxamide]: the IC50 stood at 107 nM.

Regarding `O=C(Nc1cnn2ccc(N3CCC[C@@H]3c3cc(F)ccc3F)nc12)[C@H]1CC[C@@H](O)C1` [Example 94, (1S,3R)—N-(5-((R)-2-(2,5-difluorophenyl)pyrrolidin-1-yl)pyrazolo[1,5-a]pyrimidin-3-yl)-3-hydroxycyclopentanecarboxamide], the half-inhibitory concentration (IC50) stood at 20.3 nM.

As to `O=C(Nc1cnn2ccc(N3CCC[C@@H]3c3cc(F)ccc3F)nc12)[C@H]1CC[C@H](O)C1` [Example 95, (1S,3S)—N-(5-((R)-2-(2,5-difluorophenyl)pyrrolidin-1-yl)pyrazolo[1,5-a]pyrimidin-3-yl)-3-hydroxycyclopentanecarboxamide], the IC50 came out at 42.5 nM.

For `O=C(Nc1cnn2ccc(N3CCC[C@@H]3c3cc(F)ccc3F)nc12)C1CC(O)C1` (stereo partly drawn) [Example 96, (R)—N-(5-(2-(2,5-difluorophenyl)pyrrolidin-1-yl)pyrazolo[1,5-a]pyrimidin-3-yl)-3-hydroxycyclobutanecarboxamide], the IC50 was determined as 27.4 nM.

As for `CN(C)C(=O)C(=O)Nc1cnn2ccc(N3CCC[C@@H]3c3cc(F)ccc3F)nc12` [Example 97, (R)—N^1-(5-(2-(2,5-difluorophenyl)pyrrolidin-1-yl)pyrazolo[1,5-a]pyrimidin-3-yl)-N^2,N^2-dimethyloxalamide], the 50% inhibitory concentration (IC50) was 47.5 nM.

For `CNC(=O)C(=O)Nc1cnn2ccc(N3CCC[C@@H]3c3cc(F)ccc3F)nc12` [Example 98, (R)—N^1-(5-(2-(2,5-difluorophenyl)pyrrolidin-1-yl)pyrazolo[1,5-a]pyrimidin-3-yl)-N^2-methyloxalamide], the IC50 was found to be 7.65 nM.
